Patent US10681909B2, “Herbicidal triazoles” (FMC Corporation, priority 2014, dated 2020)

Key:
nutsedge, yellow = experiment: Test C preemergence; assay type: in vivo, Cyperus esculentus; conditions: for Plant response rating (scale of 0 to 100 where 0 is no effect and 100 is complete control): Nutsedge, Yellow, preemergence; for Nutsedge, Yellow plant response rating (0 to 100): Preemergence, visual rating after 13 to 15 d
From the text: (§1) Seeds of plant species selected from blackgrass (Alopecurus myosuroides), ryegrass, Italian (Italian ryegrass, Lolium multiflorum), wheat (winter wheat, Triticum aestivum), galium (catchweed bedstraw, Galium aparine), corn (Zea mays), crabgrass, large (large crabgrass, Digitaria sanguinalis), foxtail, giant, (giant foxtail, Setaria faberii), johnsongrass (Sorghum halepense), lambsquarters (Chenopodium album), morningglory (Ipomoea coccinea), nutsedge, yellow (yellow nutsedge, Cyperus esculentus), pigweed (Amaranthus retroflexus), ragweed (common ragweed, Ambrosia elatior), soybean (Glycine max), barnyardgrass (Echinochloa crus-galli), oilseed rape (Brassica napus), waterhemp (common waterhemp, Amaranthus rudis), and velvetleaf (Abutilon theophrasti) were planted into a blend of loam soil and sand and treated preemergence with test chemicals formulated in a non-phytotoxic solvent mixture which included a surfactant. At the same time, plants selected from these crop and weed species and also chickweed (common chickweed, Stellaria media), oat, wild (wild oat, Avena fatua), and kochia (Kochia scoparia), were planted in pots containing Sunshine Redi-Earth® planting medium comprising spaghnum peat moss, vermiculite, starter nutrients and dolomitic limestone and treated with postemergence applications of test chemicals formulated in the same manner. Plants ranged in height from 2 to 18 cm (1- to 4-leaf stage) for postemergence treatments. […] A dash (-) response means no test result.

galium [1] = experiment: Test C preemergence; assay type: in vivo, Galium aparine; conditions: for Plant response rating (scale of 0 to 100 where 0 is no effect and 100 is complete control): Galium, preemergence; for Galium plant response rating (0 to 100): Preemergence, visual rating after 13 to 15 d
From the text: as §1

windgrass = experiment: Test D postemergence; assay type: in vivo, Apera spica-venti; conditions: scale 0 to 100
From the text: (§2) Seeds of plant species selected from bluegrass (annual bluegrass, Poa annua), blackgrass (Alopecurus myosuroides), canarygrass (Phalaris minor), chickweed (common chickweed, Stellaria media), galium (catchweed bedstraw, Galium aparine), bromegrass, down (downy bromegrass, Bromus tectorum), Russian thistle (Salsola kali), field poppy (Papaver rhoeas), field violet (Viola arvensis), foxtail, green (green foxtail, Setaria viridis), deadnettle (henbit deadnettle, Lamium amplexicaule), ryegrass, Ital. (Italian ryegrass, Lolium multiflorum), kochia (Kochia scoparia), lambsquarters (Chenopodium album), oilseed rape (Brassica napus), pigweed (Amaranthus retroflexus), chamomile (scentless chamomile, Matricaria inodora), speedwell (bird's-eye speedwell, Veronica persica), barley, spring (spring barley, Hordeum vulgare), wheat, spring (spring wheat, Triticum aestivum), buckwheat, wild (wild buckwheat, Polygonum convolvulus), wild mustard (Sinapis arvensis), oat, wild (wild oat, Avena fatua), radish, wild (wild radish, Raphanus raphanistrum), […]), barley, winter (winter barley, Hordeum vulgare), and wheat, winter (winter wheat, Triticum aestivum) were planted into a silt loam soil and treated preemergence with test chemicals formulated in a non-phytotoxic solvent mixture which included a surfactant. At the same time, these species were planted in pots containing Sunshine Redi-Earth® planting medium comprising spaghnum peat moss, vermiculite, starter nutrients and dolomitic limestone and treated with postemergence applications of the test chemicals formulated in the same manner. Plants ranged in height from 2 to 18 cm (1- to 4-leaf stage). Treated plants and controls were maintained in a controlled growth environment for 14 to 21 d after which time all species were compared to controls and visually evaluated. […] A dash (-) response means no test result.

oat, wild = experiment: Test D postemergence; assay type: in vivo, Avena fatua; conditions: scale 0 to 100
From the text: as §2

galium [2] = experiment: Test D preemergence; assay type: in vivo, Galium aparine; conditions: scale 0 to 100
From the text: as §2

ragweed = experiment: Test C preemergence; assay type: in vivo, Ambrosia elatior; conditions: for Ragweed plant response rating (0 to 100): Preemergence, visual rating after 13 to 15 d; for Plant response rating (scale of 0 to 100 where 0 is no effect and 100 is complete control): Ragweed, preemergence
From the text: as §1

lambsquarters = experiment: Test D postemergence; assay type: in vivo, Chenopodium album; conditions: scale 0 to 100
From the text: as §2

field poppy [3] = experiment: Test D preemergence; assay type: in vivo, Papaver rhoeas; conditions: scale 0 to 100
From the text: as §2

ryegrass, Ital. = experiment: Test D postemergence; assay type: in vivo, Lolium multiflorum; conditions: scale 0 to 100
From the text: as §2

canarygrass = experiment: Test D preemergence; assay type: in vivo, Phalaris minor; conditions: scale 0 to 100
From the text: as §2

field poppy [4] = experiment: Test D postemergence; assay type: in vivo, Papaver rhoeas; conditions: scale 0 to 100
From the text: as §2

Q: With CCc1nc(-c2ccc(C(F)(F)F)cc2)nn1Cc1ccnc(C(F)(F)F)c1 [Compound 1, 4-[[5-ethyl-3-[4-(trifluoromethyl)phenyl]-1H-1,2,4-triazol-1-yl]methyl]-2-(trifluoromethyl)pyridine] as the molecule, how does the “Plant response rating (scale of 0 to 100 where 0 is no effect and 100 is complete control)” value (nutsedge, yellow; 250 g ai/ha) read?
A: 15

Q: And the “Nutsedge, Yellow plant response rating (0 to 100)” value (from here on “Nutsedge … (0 to 100)”) (nutsedge, yellow; 31 g ai/ha)?
A: 0

Q: And the “Nutsedge … (0 to 100)” value (nutsedge, yellow; 62 g ai/ha)?
A: 5

Q: What about the “Plant response rating (scale of 0 to 100 where 0 is no effect and 100 is complete control)” value (galium [1]; 125 g ai/ha) of the same molecule?
A: 100

Q: And the “Plant response rating (scale of 0 to 100 where 0 is no effect and 100 is complete control)” value (galium [1]; 250 g ai/ha)?
A: 100

Q: What about the “Galium plant response rating (0 to 100)” value (galium [1]; 31 g ai/ha) of the same molecule?
A: 70

Q: And the “Galium plant response rating (0 to 100)” value (galium [1]; 62 g ai/ha)?
A: 98

Q: And the “Plant response rating: Windgrass” value (windgrass; 31 g ai/ha)?
A: 15

Q: And the “Plant response rating: Windgrass” value (windgrass; 62 g ai/ha)?
A: 20

Q: And the “Plant response rating: Windgrass” value (windgrass; 125 g ai/ha)?
A: 30

Q: And the “Plant response rating: Windgrass” value (windgrass; 250 g ai/ha)?
A: 60

Q: And the “Plant response rating: Oat, Wild” value (oat, wild; 31 g ai/ha)?
A: 25

Q: And the “Plant response rating: Oat, Wild” value (oat, wild; 62 g ai/ha)?
A: 30

Q: And the “Plant response rating: Oat, Wild” value (oat, wild; 125 g ai/ha)?
A: 35

Q: And the “Plant response rating: Oat, Wild” value (oat, wild; 250 g ai/ha)?
A: 45

Q: What about the “Plant response rating: Galium” value (galium [2]; 125 g ai/ha) of the same molecule?
A: 60

Q: What about the “Plant response rating: Galium” value (galium [2]; 250 g ai/ha) of the same molecule?
A: 100

Q: And the “Ragweed plant response rating (0 to 100)” value (ragweed; 31 g ai/ha)?
A: 35

Q: And the “Ragweed plant response rating (0 to 100)” value (ragweed; 62 g ai/ha)?
A: 50

Q: And the “Plant response rating (scale of 0 to 100 where 0 is no effect and 100 is complete control)” value (ragweed; 125 g ai/ha)?
A: 60

Q: What about the “Plant response rating (scale of 0 to 100 where 0 is no effect and 100 is complete control)” value (ragweed; 250 g ai/ha) of the same molecule?
A: 70

Q: What about the “Plant response rating: Lambsquarters” value (lambsquarters; 31 g ai/ha) of the same molecule?
A: 75

Q: And the “Plant response rating: Lambsquarters” value (lambsquarters; 62 g ai/ha)?
A: 80

Q: What about the “Plant response rating: Lambsquarters” value (lambsquarters; 125 g ai/ha) of the same molecule?
A: 85

Q: What about the “Plant response rating: Lambsquarters” value (lambsquarters; 250 g ai/ha) of the same molecule?
A: 90

Q: What about the “Plant response rating: Field Poppy” value (field poppy [3]; 62 g ai/ha) of the same molecule?
A: 100

Q: And the “Plant response rating: Field Poppy” value (field poppy [3]; 125 g ai/ha)?
A: 100

Q: What about the “Plant response rating: Field Poppy” value (field poppy [3]; 250 g ai/ha) of the same molecule?
A: 100

Q: What about the “Plant response rating: Ryegrass, Ital.” value (ryegrass, Ital.; 31 g ai/ha) of the same molecule?
A: 10

Q: What about the “Plant response rating: Ryegrass, Ital.” value (ryegrass, Ital.; 62 g ai/ha) of the same molecule?
A: 15

Q: And the “Plant response rating: Ryegrass, Ital.” value (ryegrass, Ital.; 125 g ai/ha)?
A: 20

Q: And the “Plant response rating: Ryegrass, Ital.” value (ryegrass, Ital.; 250 g ai/ha)?
A: 35

Q: And the “Plant response rating: Canarygrass” value (canarygrass; 31 g ai/ha)?
A: 5

Q: What about the “Plant response rating: Canarygrass” value (canarygrass; 62 g ai/ha) of the same molecule?
A: 30

Q: What about the “Plant response rating: Canarygrass” value (canarygrass; 125 g ai/ha) of the same molecule?
A: 60

Q: What about the “Plant response rating: Canarygrass” value (canarygrass; 250 g ai/ha) of the same molecule?
A: 100

Q: What about the “Plant response rating: Field Poppy” value (field poppy [4]; 31 g ai/ha) of the same molecule?
A: 70

Q: And the “Plant response rating: Field Poppy” value (field poppy [4]; 62 g ai/ha)?
A: 100

Q: And the “Plant response rating: Field Poppy” value (field poppy [4]; 125 g ai/ha)?
A: 100

Q: What about the “Plant response rating: Field Poppy” value (field poppy [4]; 250 g ai/ha) of the same molecule?
A: 100

Q: For CCCc1nc(-c2ccc(F)cc2)nn1Cc1ccnc(C(F)(F)F)c1 [Compound 6, 4-[[3-(4-fluorophenyl)-5-propyl-1H-1,2,4-triazol-1-yl]methyl]-2-(trifluoromethyl)pyridine], which “Plant response rating (scale of 0 to 100 where 0 is no effect and 100 is complete control)” value (nutsedge, yellow; 125 g ai/ha) is on record?
A: 35

Q: What about the “Plant response rating (scale of 0 to 100 where 0 is no effect and 100 is complete control)” value (nutsedge, yellow; 250 g ai/ha) of the same molecule?
A: 50

Q: What about the “Nutsedge … (0 to 100)” value (nutsedge, yellow; 31 g ai/ha) of the same molecule?
A: 25

Q: What about the “Nutsedge … (0 to 100)” value (nutsedge, yellow; 62 g ai/ha) of the same molecule?
A: 30

Q: And the “Plant response rating (scale of 0 to 100 where 0 is no effect and 100 is complete control)” value (galium [1]; 125 g ai/ha)?
A: 100

Q: And the “Plant response rating (scale of 0 to 100 where 0 is no effect and 100 is complete control)” value (galium [1]; 250 g ai/ha)?
A: 100

Q: And the “Galium plant response rating (0 to 100)” value (galium [1]; 31 g ai/ha)?
A: 90

Q: And the “Galium plant response rating (0 to 100)” value (galium [1]; 62 g ai/ha)?
A: 98

Q: And the “Ragweed plant response rating (0 to 100)” value (ragweed; 31 g ai/ha)?
A: 20

Q: And the “Ragweed plant response rating (0 to 100)” value (ragweed; 62 g ai/ha)?
A: 20

Q: What about the “Plant response rating (scale of 0 to 100 where 0 is no effect and 100 is complete control)” value (ragweed; 125 g ai/ha) of the same molecule?
A: 55

Q: And the “Plant response rating (scale of 0 to 100 where 0 is no effect and 100 is complete control)” value (ragweed; 250 g ai/ha)?
A: 80

Q: With COc1nc(-c2ccc(F)cc2)nn1Cc1ccnc(C(F)(F)F)c1 [Compound 9, 4-[[3-(4-fluorophenyl)-5-methoxy-1H-1,2,4-triazol-1-yl]methyl]-2-(trifluoromethyl)pyridine] as the molecule, how does the “Plant response rating (scale of 0 to 100 where 0 is no effect and 100 is complete control)” value (nutsedge, yellow; 125 g ai/ha) read?
A: 35

Q: What about the “Plant response rating (scale of 0 to 100 where 0 is no effect and 100 is complete control)” value (nutsedge, yellow; 250 g ai/ha) of the same molecule?
A: 50

Q: What about the “Nutsedge … (0 to 100)” value (nutsedge, yellow; 31 g ai/ha) of the same molecule?
A: 10

Q: And the “Nutsedge … (0 to 100)” value (nutsedge, yellow; 62 g ai/ha)?
A: 5

Q: What about the “Plant response rating (scale of 0 to 100 where 0 is no effect and 100 is complete control)” value (galium [1]; 125 g ai/ha) of the same molecule?
A: 90

Q: And the “Plant response rating (scale of 0 to 100 where 0 is no effect and 100 is complete control)” value (galium [1]; 250 g ai/ha)?
A: 98

Q: What about the “Galium plant response rating (0 to 100)” value (galium [1]; 31 g ai/ha) of the same molecule?
A: 5

Q: And the “Galium plant response rating (0 to 100)” value (galium [1]; 62 g ai/ha)?
A: 5

Q: What about the “Ragweed plant response rating (0 to 100)” value (ragweed; 31 g ai/ha) of the same molecule?
A: 25

Q: What about the “Ragweed plant response rating (0 to 100)” value (ragweed; 62 g ai/ha) of the same molecule?
A: 60

Q: And the “Plant response rating (scale of 0 to 100 where 0 is no effect and 100 is complete control)” value (ragweed; 125 g ai/ha)?
A: 60

Q: And the “Plant response rating (scale of 0 to 100 where 0 is no effect and 100 is complete control)” value (ragweed; 250 g ai/ha)?
A: 85
